Measurements from patent US20220226299A1 (NIPPON CHEMIPHAR CO., LTD., priority 2019, published 2022).

Each compound was assayed against T1, human Cav3.2 channels (Homo sapiens, UniProt O95180) (assay: T-type calcium blocking action: intracellular calcium (Fluo-4 AM fluorescence) in HEK293 cells steadily expressing human Cav3.2 channels). Conditions: HEK293 cells expressing human Cav3.2; KCl-stimulated calcium influx, Fluo-4 fluorescence; Tables 1 to 3.
T1 construct: human Cav3.2 channel ORF (Open Reading Frame) gene; expressed in transfected cells; host or cells: HEK293 cells (ATCC No. CRL-1573), pcDNA3.1(+) plasmid
T1 sequence (O95180 whole entry): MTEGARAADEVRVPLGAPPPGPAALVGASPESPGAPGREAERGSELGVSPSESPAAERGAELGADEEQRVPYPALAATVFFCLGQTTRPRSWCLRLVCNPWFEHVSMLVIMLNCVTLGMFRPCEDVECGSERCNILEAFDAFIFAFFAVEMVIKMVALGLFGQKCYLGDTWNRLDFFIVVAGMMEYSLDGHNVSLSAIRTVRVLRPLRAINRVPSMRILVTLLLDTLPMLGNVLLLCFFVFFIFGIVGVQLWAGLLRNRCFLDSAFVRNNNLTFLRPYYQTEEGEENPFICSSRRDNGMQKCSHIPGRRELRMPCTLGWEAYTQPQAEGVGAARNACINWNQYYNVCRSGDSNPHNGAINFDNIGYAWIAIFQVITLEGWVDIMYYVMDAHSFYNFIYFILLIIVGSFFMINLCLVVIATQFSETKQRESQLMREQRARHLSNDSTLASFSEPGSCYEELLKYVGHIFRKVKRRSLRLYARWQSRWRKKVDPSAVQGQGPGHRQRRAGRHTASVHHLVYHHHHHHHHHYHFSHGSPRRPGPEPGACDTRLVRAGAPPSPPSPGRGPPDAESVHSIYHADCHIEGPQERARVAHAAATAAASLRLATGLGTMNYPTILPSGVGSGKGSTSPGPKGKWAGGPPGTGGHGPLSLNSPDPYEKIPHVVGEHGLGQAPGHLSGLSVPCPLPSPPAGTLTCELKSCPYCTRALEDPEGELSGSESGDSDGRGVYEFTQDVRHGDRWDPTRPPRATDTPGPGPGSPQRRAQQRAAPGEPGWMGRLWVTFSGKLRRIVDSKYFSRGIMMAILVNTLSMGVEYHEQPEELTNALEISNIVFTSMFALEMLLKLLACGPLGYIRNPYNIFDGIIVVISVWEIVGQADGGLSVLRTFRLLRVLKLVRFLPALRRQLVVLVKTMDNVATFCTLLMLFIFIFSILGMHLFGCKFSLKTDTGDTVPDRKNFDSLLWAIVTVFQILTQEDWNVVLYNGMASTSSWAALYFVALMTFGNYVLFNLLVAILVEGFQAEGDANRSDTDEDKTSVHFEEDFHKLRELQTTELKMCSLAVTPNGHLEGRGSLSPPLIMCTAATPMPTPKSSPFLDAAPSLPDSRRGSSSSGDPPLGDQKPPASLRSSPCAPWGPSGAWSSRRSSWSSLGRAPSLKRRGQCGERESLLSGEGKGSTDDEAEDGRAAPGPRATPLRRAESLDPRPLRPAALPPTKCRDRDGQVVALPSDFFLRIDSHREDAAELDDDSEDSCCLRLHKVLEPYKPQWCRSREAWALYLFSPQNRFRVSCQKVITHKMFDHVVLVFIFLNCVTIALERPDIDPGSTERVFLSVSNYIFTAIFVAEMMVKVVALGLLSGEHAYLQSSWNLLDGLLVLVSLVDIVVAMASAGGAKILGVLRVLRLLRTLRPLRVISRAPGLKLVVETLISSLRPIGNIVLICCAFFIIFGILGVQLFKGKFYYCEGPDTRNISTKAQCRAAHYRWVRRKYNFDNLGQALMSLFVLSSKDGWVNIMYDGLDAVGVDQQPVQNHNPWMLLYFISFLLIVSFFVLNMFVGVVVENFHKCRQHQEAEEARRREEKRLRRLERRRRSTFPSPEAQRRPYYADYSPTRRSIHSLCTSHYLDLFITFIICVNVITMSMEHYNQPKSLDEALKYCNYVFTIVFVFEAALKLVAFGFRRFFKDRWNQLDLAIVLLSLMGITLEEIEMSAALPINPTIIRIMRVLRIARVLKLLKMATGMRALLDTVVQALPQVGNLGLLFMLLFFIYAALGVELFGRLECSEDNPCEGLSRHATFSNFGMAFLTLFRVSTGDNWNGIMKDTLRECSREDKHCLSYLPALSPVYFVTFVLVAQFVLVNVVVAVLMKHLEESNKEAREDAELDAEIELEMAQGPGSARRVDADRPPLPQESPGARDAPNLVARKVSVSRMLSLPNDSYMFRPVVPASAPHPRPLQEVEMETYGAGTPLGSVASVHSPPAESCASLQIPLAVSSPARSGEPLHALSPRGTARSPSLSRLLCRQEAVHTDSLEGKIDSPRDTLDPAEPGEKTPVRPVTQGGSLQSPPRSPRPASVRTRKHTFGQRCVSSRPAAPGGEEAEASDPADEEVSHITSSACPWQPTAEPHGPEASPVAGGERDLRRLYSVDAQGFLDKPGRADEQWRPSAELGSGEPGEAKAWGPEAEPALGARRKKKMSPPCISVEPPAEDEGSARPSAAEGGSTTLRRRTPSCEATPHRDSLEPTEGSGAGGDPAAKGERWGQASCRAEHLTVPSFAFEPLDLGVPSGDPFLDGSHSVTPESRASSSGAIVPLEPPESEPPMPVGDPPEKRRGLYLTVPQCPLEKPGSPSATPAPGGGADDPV
Assay type: cell-based
In short: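 Fluo-4 AM-loaded stable HEK293 cells were preincubated 15 min at RT with compound (0.1% DMSO final) in choline-based buffer (pH 7.3). Gramicidin was added, then KCl-induced calcium influx was read at 485/510 nm for 10 s. Percent block came from peak rise over baseline, and IC50 from log-concentration plots.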

In order of falling IC50:
1. O=C(N[C@@H]1CCCN(c2ccc(C(F)(F)F)cc2)C1)[C@H]1C[C@@H]1c1nc2ccccc2[nH]1 [Example 65, (1S,2S)-2-(1H-benzo[d]imidazol-2-yl)-N—((R)-1-(4-(trifluoromethyl)phenyl)piperidin-3-yl)cyclopropane-1-carboxyamide]  8900 nM
2. O=C(Cc1cc(Cl)cc(Cl)c1)N[C@@H]1CCN(c2cncc(C(F)(F)F)c2)C1 [Example 119, (R)-2-(3,5-dichlorophenyl)-N-(1-(5-(trifluoromethyl)pyridin-3-yl)pyrrolidin-3-yl)acetamide]  2300 nM
3. O=C(Cc1ccc(O)cc1)N[C@@H]1CCN(c2cncc(C(F)(F)F)c2)C1 [Example 22, (R)-2-(4-hydroxyphenyl)-N-(1-(5-(trifluoromethyl)pyridin-3-yl)pyrrolidin-3-yl)acetamide]  1600 nM
4. O=C(Cc1ccc2ocnc2c1)N[C@@H]1CCN(c2cncc(C(F)(F)F)c2)C1 [Example 152, (R)-2-(benzo[d]oxazol-5-yl)-N-(1-(5-(trifluoromethyl)pyridin-3-yl)pyrrolidin-3-yl)acetamide]  1300 nM
5. O=C(Cc1nc2ccccc2o1)N[C@@H]1CCN(c2cncc(C(F)(F)F)c2)C1 [Example 98, (R)-2-(benzo[d]oxazol-2-yl)-N-(1-(5-(trifluoromethyl)pyridin-3-yl)pyrrolidin-3-yl)acetamide]  1100 nM
6. O=C(Cc1ccc(C2CC2)cc1)N[C@@H]1CCN(c2cc(OCC(F)(F)F)ccn2)C1 [Example 127, (R)-2-(4-cyclopropylphenyl)-N-(1-(4-(2,2,2-trifluoroethoxy)pyridin-2-yl)pyrrolidin-3-yl)acetamide]  1100 nM
7. Cc1nc2cc(CC(=O)N[C@@H]3CCN(c4ccc(C(F)(F)F)nc4)C3)ccc2o1 [Example 154, (R)-2-(2-methylbenzo[d]oxazol-5-yl)-N-(1-(6-(trifluoromethyl)pyridin-3-yl)pyrrolidin-3-yl)acetamide]  1000 nM
8. N#CC1(NC(=O)Cc2ccc(C3CC3)cc2)CCN(c2cncc(C(F)(F)F)c2)C1 (stereo not shown) [Example 36, N-(3-cyano-1-(5-(trifluoromethyl)pyridin-3-yl)pyrrolidin-3-yl)-2-(4-cyclopropylphenyl)acetamide]  980 nM
9. O=C(Cc1ccc(C2CC2)cc1)N[C@@H]1CCN(c2cncc(OCC(F)(F)F)c2)C1 [Example 126, (R)-2-(4-cyclopropylphenyl)-N-(1-(5-(2,2,2-trifluoroethoxy)pyridin-3-yl)pyrrolidin-3-yl)acetamide]  830 nM
10. O=C(Cc1ccc([N+](=O)[O-])cc1)N[C@@H]1CCN(c2cncc(C(F)(F)F)c2)C1 [Example 30, (R)-2-(4-nitrophenyl)-N-(1-(5-(trifluoromethyl)pyridin-3-yl)pyrrolidin-3-yl)acetamide]  650 nM
11. CC(=O)Nc1ccc(CC(=O)N[C@@H]2CCN(c3cncc(C(F)(F)F)c3)C2)cc1 [Example 35, (R)-2-(4-acetamidophenyl)-N-(1-(5-(trifluoromethyl)pyridin-3-yl)pyrrolidin-3-yl)acetamide]  630 nM
12. O=C(Cc1ccc(C2CC2)cc1)N[C@@H]1CCN(c2cccc(O)c2)C1 [Example 178, (R)-2-(4-cyclopropylphenyl)-N-(1-(3-hydroxyphenyl)pyrrolidin-3-yl)acetamide]  590 nM
13. Cn1nc(CC(=O)N[C@@H]2CCN(c3cncc(C(F)(F)F)c3)C2)cc1C(F)(F)F [Example 81, (R)-2-(1-methyl-5-(trifluoromethyl)-1H-pyrazol-3-yl)-N-(1-(5-(trifluoromethyl)pyridin-3-yl)pyrrolidin-3-yl) acetamide]  550 nM
14. O=C(N[C@@H]1CCN(c2cncc(C(F)(F)F)c2)C1)C1CC1c1cc(Cl)cc(Cl)c1 (single isomer, unassigned) [Example 99B]  480 nM
15. C[C@H]1C[C@@H](NC(=O)Cc2ccc(C3CC3)cc2)CN1c1cncc(C(F)(F)F)c1 [Example 9, 2-(4-cyclopropylphenyl)-N-((3R,5S)-5-methyl-1-(5-(trifluoromethyl)pyridin-3-yl)pyrrolidin-3-yl)acetamide]  480 nM
16. O=C(Cc1ccc(C(F)(F)F)cc1)NC1CN(c2cncc(C(F)(F)F)c2)C1 [Example 89, 2-(4-(Trifluoromethyl)phenyl)-N-(1-(5-(trifluoromethyl)pyridin-3-yl)azetidin-3-yl)acetamide]  430 nM
17. O=C(Cc1ccc(N2CCCCC2=O)cc1)N[C@@H]1CCN(c2cncc(C(F)(F)F)c2)C1 [Example 96, (R)-2-(4-(2-oxopiperidin-1-yl)phenyl)-N-(1-(5-(trifluoromethyl)pyridin-3-yl)pyrrolidin-3-yl)acetamide]  410 nM
18. O=C(Cc1ccc2cn[nH]c2c1)N[C@@H]1CCN(c2cncc(C(F)(F)F)c2)C1 [Example 15, (R)-2-(1H-indazol-6-yl)-N-(1-(5-(trifluoromethyl)pyridin-3-yl)pyrrolidin-3-yl)acetamide]  370 nM
19. C[C@@H]1CN(c2ccc(CC(=O)N[C@@H]3CCN(c4cncc(C(F)(F)F)c4)C3)cc2)C[C@H](C)O1 [Example 86, 2-(4-((2R,6S)-2,6-dimethylmorpholino)phenyl)-N—((R)-1-(5-(trifluoromethyl)pyridin-3-yl)pyrrolidin-3-yl) acetamide]  370 nM
20. CN1CCN(c2ccc(CC(=O)N[C@@H]3CCN(c4cncc(C(F)(F)F)c4)C3)cc2)CC1 [Example 93, (R)-2-(4-(4-methylpiperazin-1-yl)phenyl)-N-(1-(5-(trifluoromethyl)pyridin-3-yl)pyrrolidin-3-yl)acetamide]  340 nM
21. O=C(Cc1ccc2ncsc2c1)N[C@@H]1CCN(c2cncc(C(F)(F)F)c2)C1 [Example 157, (R)-2-(benzo[d]thiazol-6-yl)-N-(1-(5-(trifluoromethyl)pyridin-3-yl)pyrrolidin-3-yl)acetamide]  280 nM
22. O=C(Cc1c[nH]c2ccccc12)N[C@@H]1CCN(c2cncc(C(F)(F)F)c2)C1 [Example 78, (R)-2-(1H-indol-3-yl)-N-(1-(5-(trifluoromethyl)pyridin-3-yl)pyrrolidin-3-yl)acetamide]  270 nM
23. CC(C)c1ccc(CC(=O)NC2CCN(c3cncc(C(F)(F)F)c3)CC2)cc1 [Example 109, 2-(4-Isopropylphenyl)-N-(1-(5-(trifluoromethyl)pyridin-3-yl)piperidin-4-yl)acetamide]  240 nM
24. CC(C)(C(=O)N[C@@H]1CCN(c2cncc(C(F)(F)F)c2)C1)c1ccc(C2CC2)cc1 [Example 135, (R)-2-(4-cyclopropylphenyl)-2-methyl-N-(1-(5-(trifluoromethyl)pyridin-3-yl)pyrrolidin-3-yl)propanamide]  230 nM
25. O=C(Cc1ccc(N2CC3CC2CO3)cc1)N[C@@H]1CCN(c2ccc(C(F)(F)F)nc2)C1 (single isomer, unassigned) [Example 166]  220 nM
26. CC(C)(O)c1ccc(CC(=O)N[C@@H]2CCN(c3cncc(C(F)(F)F)c3)C2)cc1 [Example 131, (R)-2-(4-(2-hydroxypropan-2-yl)phenyl)-N-(1-(5-(trifluoromethyl)pyridin-3-yl)pyrrolidin-3-yl)acetamide]  200 nM
27. Cc1nccnc1-c1ccc(CC(=O)N[C@@H]2CCN(c3cncc(C(F)(F)F)c3)C2)cc1 [Example 132, (R)-2-(4-(3-methylpyrazin-2-yl)phenyl)-N-(1-(5-(trifluoromethyl)pyridin-3-yl)pyrrolidin-3-yl)acetamide]  190 nM
28. O=C(N[C@@H]1CCCN(c2ccc(C(F)(F)F)nc2)C1)C1CC1c1nc2ccccc2[nH]1 (single isomer, unassigned) [Example 63A]  190 nM
29. O=C(Cc1ccc(C2CC2)cc1)N[C@H]1CN(c2cncc(C(F)(F)F)c2)CC12CC2 [Example 6, (R)-2-(4-cyclopropylphenyl)-N-(5-(5-(trifluoromethyl)pyridin-3-yl)-5-azaspiro[2.4]heptan-7-yl) acetamide]  130 nM
30. O=C(N[C@@H]1CCN(c2ccc(C(F)(F)F)nc2)C1)[C@H]1C[C@@H]1c1nc2cc(F)ccc2o1 [Example 51]  120 nM
31. Cn1ncc2cc(CC(=O)N[C@@H]3CCN(c4nc(C(F)(F)F)cs4)C3)ccc21 [Example 143, (R)-2-(1-methyl-1H-indazol-5-yl)-N-(1-(4-(trifluoromethyl)thiazol-2-yl)pyrrolidin-3-yl)acetamide]  120 nM
32. O=C(Cc1ccc(N2C[C@@H]3CC[C@H]2CO3)cc1)N[C@@H]1CCN(c2cncc(C(F)(F)F)c2)C1 [Example 155, 2-(4-((1S,4S)-2-oxa-5-azabicyclo[2.2.2]octan-5-yl)phenyl)-N—((R)-1-(5-(trifluoromethyl)pyridin-3-yl)pyrrolidin-3-yl)acetamide]  75 nM
33. CC(C)c1ccc(CC(=O)NC2CN(c3cncc(C(F)(F)F)c3)C2)cc1 [Example 117, 2-(4-Isopropylphenyl)-N-(1-(5-(trifluoromethyl)pyridin-3-yl)azetidin-3-yl)acetamide]  71 nM
34. O=C(N[C@@H]1CCN(c2cncc(Br)c2)C1)[C@H]1C[C@@H]1c1nc2ccccc2[nH]1 [Example 76, (1S,2S)-2-(1H-benzo[d]imidazol-2-yl)-N—((R)-1-(5-bromopyridin-3-yl)pyrrolidin-3-yl)cyclopropane-1-carboxyamide]  67 nM
35. Cn1ccc2ccc(CC(=O)N[C@@H]3CCN(c4cncc(C(F)(F)F)c4)C3)cc21 [Example 91, (R)-2-(1-methyl-1H-indol-6-yl)-N-(1-(5-(trifluoromethyl)pyridin-3-yl)pyrrolidin-3-yl)acetamide]  32 nM
36. COC(=O)C1(NC(=O)Cc2ccc(C3CC3)cc2)CCN(c2cncc(C(F)(F)F)c2)C1 (stereo not shown) [Example 13, Methyl 3-(2-(4-cyclopropylphenyl)acetamido)-1-(5-(trifluoromethyl)pyridin-3-yl)pyrrolidine-3-carboxylate]  18 nM
37. O=C(N[C@@H]1CCN(c2cncc(C(F)(F)F)c2)C1)C1CC1c1ccc(C2CC2)cc1 (single isomer, unassigned) [Example 106A]  11 nM
